# From PubChem BioAssay AID608 (Sanford-Burnham Center for Chemical Genomics, 2007)
# Calls of active or inactive are those of the source. How the calls were made is not given here.
# Target: Peptidyl-prolyl cis-trans isomerase FKBP1A (Homo sapiens) (UniProt P62942)
# Assay: FKBP12 binders, biophysical, NMR detection (AID 608)
# Details: NMR binding, purified FKBP12
# Peptidyl-prolyl cis-trans isomerase FKBP1A (Homo sapiens), sequence (P62942 whole entry, looked up): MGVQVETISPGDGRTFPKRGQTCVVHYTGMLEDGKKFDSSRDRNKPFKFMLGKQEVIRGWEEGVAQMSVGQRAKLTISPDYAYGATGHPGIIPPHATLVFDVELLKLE
row,SMILES,Kd
1,C[C@@H]1C(=O)O[C@H]2[C@H]1CC[C@@]1(C)C=CC(=O)[C@@]3(C)O[C@@]213,> 4 mM (inactive)
2,O=C(O)c1cccc2c1OCCCO2,> 4 mM (inactive)
3,Cc1nc2nc(Cc3ccccc3)[nH]n2c(=O)c1Cl,> 4 mM (inactive)
4,NCCc1c[nH]c2ccccc12,> 4 mM (inactive)
5,Cc1nnc(SCC(=O)N2CCc3ccccc32)s1,> 4 mM (inactive)
6,O=C1CCC(=O)N1CNc1ccccc1,> 4 mM (inactive)
7,Cc1c(C(=O)OC(C)C)[nH]c2c1C(=O)CCC2,> 4 mM (inactive)
8,S=c1nc[nH]c2c1cnn2-c1ccccc1,> 4 mM (inactive)
9,CNC(=O)C(=O)Nc1cccc(Cl)c1,> 4 mM (inactive)
10,CC1(C)Cc2cccc(CO)c2O1,> 4 mM (inactive)
11,O=C(NCc1cccs1)c1nc2ncccn2n1,> 4 mM (inactive)
12,Nc1ccc(CCC(=O)O)cc1,> 4 mM (inactive)
13,NC(=O)CSCc1ccc(Br)cc1,> 4 mM (inactive)
14,O=C1c2ccccc2-c2ncnc3cccc1c23,> 4 mM (inactive)
15,OCC1CCN(Cc2ccccc2)CC1,> 4 mM (inactive)
16,O=C(Nc1nncs1)C1(c2ccccc2)CCCC1,> 4 mM (inactive)
17,CCCCCCCCCCCCCCC(C(=O)O)C(O)(CC(=O)OC)C(=O)O (centres undefined),> 4 mM (inactive)
18,O=C1CNC(=O)N1Cc1ccc(F)cc1,> 4 mM (inactive)
19,COc1ccc(C(=O)NC2=NCCS2)cc1OC,> 4 mM (inactive)
20,Cc1ccc(S(=O)(=O)CCc2ccccn2)cc1,> 4 mM (inactive)
21,Nc1nc2ccc(N3CCOCC3)cc2s1,> 4 mM (inactive)
22,COc1c(OC)c2occc2c2oc(=O)ccc12,> 4 mM (inactive)

row,SMILES,Kd
1,O=C(O)c1ccc(NCc2cccnc2)cc1,> 4 mM (inactive)
2,Cc1[nH]c2ccccc2c1CN(C)C,> 4 mM (inactive)
3,O=C(Nc1ccccc1C(F)(F)F)N1CCCCCC1,> 4 mM (inactive)
4,Cc1cc(-c2ccccc2)nc2cc(C(N)=O)nn12,> 4 mM (inactive)
5,COC(=O)Nc1nnc(-c2ccncc2)s1,> 4 mM (inactive)
6,COc1ccc(-c2oc3cc(O[C@H]4O[C@H](CO)[C@@H](O)[C@H](O)[C@H]4O)c(OC)c(O)c3c(=O)c2OC)cc1O,> 4 mM (inactive)
7,CCCS(=O)(=O)N1CCN(c2ccccn2)CC1,> 4 mM (inactive)
8,Oc1cc2c(cc1O)C1c3ccc(O)c(O)c3OCC1(O)C2 (centres undefined),> 4 mM (inactive)
9,COC(=O)CC1C(C)(C)C(OC(C)=O)[C@@H]2[C@@H](OC(C)=O)[C@]34O[C@@]2(O)[C@]1(C)C3CC[C@]1(C)C4=CC(=O)O[C@H]1c1ccoc1 (some centres undefined),> 4 mM (inactive)
10,O=C(OCc1c(Cl)cccc1Cl)c1cnccn1,> 4 mM (inactive)
11,Cc1cc(=O)n(C(N)=S)[nH]1,> 4 mM (inactive)
12,Cc1cccc(NC(=O)Nc2cc(C)on2)c1,> 4 mM (inactive)
13,COc1cc([C@@H]2c3cc4c(c(O)c3C[C@H]3COC(=O)[C@@H]32)OCO4)cc(OC)c1OC,> 4 mM (inactive)
14,CCC(=O)Nc1ccc(-c2nn3c(C)nnc3s2)cc1,> 4 mM (inactive)
15,C=C1C([C@]2(C)C(CC(=O)OC)[C@@](C)(COC(C)=O)OC(=O)C[C@@H]2OC(C)=O)[C@@H](OC=O)[C@H](OC(=O)C(OC(C)=O)C(C)CC)[C@@]2(C)[C@H](c3ccoc3)CC(=O)C12O (some centres undefined),> 4 mM (inactive)
16,COc1cc(CNC(=O)CCCC/C=C/C(C)C)ccc1O,> 4 mM (inactive)
17,C[C@@H]1O[C@@H](O[C@H]2[C@H](Oc3cc(O)c4c(=O)cc(-c5ccc(O)cc5)oc4c3)O[C@H](CO)[C@@H](O)[C@@H]2O)[C@H](O)[C@H](O)[C@H]1O,> 4 mM (inactive)
18,Cc1cccc(NS(=O)(=O)c2cccs2)n1,> 4 mM (inactive)
19,NC1CS(=O)(=O)CC1O (centres undefined),> 4 mM (inactive)
20,Cc1noc(-c2ccccc2)c1CO,> 4 mM (inactive)
21,CC1NC(C(=O)O)Cc2c1[nH]c1ccccc21 (centres undefined),> 4 mM (inactive)
22,Brc1ccccc1Cn1c(-c2cscn2)nc2ccccc21,inactive
